In general, IC50 refers to the midpoint of a concentration-inhibition curve.

Experiment [1] has as its system eIF4E Ser209 phosphorylation in A549 cells. The experiment in a line: AlphaScreen SureFire eIF4E Ser209 phosphorylation assay in A549 cells with 20% FCS stimulation. The experiment is classed as cell-based. The conditions noted are these: Homo sapiens, read-out: pEIF4e (IC50 of the EIF4e phosphorylation). The text has this:
The AlphaScreen SureFire eIF4E Ser209 phoshorylation assay is used to measure the phosphorylation of endogenous eIF4E in cellular lysates. The AlphaScreen SureFire technology allows the detection of phosphorylated proteins in cellular lysates. In this assay, sandwich antibody complexes, which are only formed in the presence of the analyte (p-eIF4E Ser209), are captured by AlphaScreen donor and acceptor beads, bringing them into close proximity. The excitation of the donor bead provokes the release of singlet oxygen molecules that triggers a cascade of energy transfer in the Acceptor beads, resulting in the emission of light at 520-620 nm.
Surefire EIF4e Alphascreen in A549 cells with 20% FCS stimulation
For the assay the AlphaScreen SureFire p-eIF4E Ser209 10K Assay Kit and the AlphaScreen ProteinA Kit (for 10K assay points) both from Perkin Elmer were used. On day one 50.000 A549 cells were plated in a 96-well plate in 100 μL per well in growth medium (DMEM/Hams' F12 with stable Glutamin, 10% FCS) and incubated at 37° C. After attachment of the cells, medium was changed to starving medium (DMEM, 0.1% FCS, without Glucose, with Glutamin, supplemented with 5 g/L Maltose). On day two, test compounds were serially diluted in 50 μL starving medium with a final DMSO concentration of 1% and were added to A549 cells in test plates at a final concentration range from as high 10 μM to as low 10 nM depending on the activities of the tested compounds. Treated cells were incubated at 37° C. for 2 h. 37 ul FCS was added to the wells (=final FCS concentration 20%) for 20 min. Then medium was removed and cells were lysed by adding 50 μL lysis buffer. Plates were then agitated on a plate shaker for 10 min. After 10 min lysis time, 4 μL of the lysate is transferred to a 384 well plate (Proxiplate from Perkin Elmer) and 5 μL Reaction Buffer plus Activation Buffer mix containing AlphaScreen Acceptor beads was added. Plates were sealed with TopSeal-A adhesive film, gently agitated on a plate shaker for 2 hours at room temperature. Afterwards 2 μL Dilution buffer with AlphaScreen Donor beads were added under subdued light and plates were sealed again with TopSeal-A adhesive film and covered with foil. Incubation takes place for further 2 h gently agitation at room temperature. Plates were then measured in an EnVision reader (Perkin Elmer) with the AlphaScreen program. Each data point (compound dilution) was measured as triplicate.
The IC50 values were determined by means of a 4-parameter fit using the company's own software.
(In general: Alpha assays give light when donor and acceptor beads are brought close together.)

Experiment [2] has as its target T1, human full-length MKNK1 (Homo sapiens, UniProt Q9BUB5, T385D).
T1 construct: GST (N); purchased Carna Biosciences 02-145; host or cells: insect cells (baculovirus expression system)
Kind of experiment: MKNK1 kinase high ATP assay (TR-FRET). The experiment is classed as biochemical. The conditions noted are these: 2 mM ATP, after preincubation with MKNK1; read-out: MKNK1 IC50 (MKNK1 high ATP). The method in brief:
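Compound was preincubated 15 min at 22° C. with MKNK1 in 50 mM HEPES pH 7.5, 5 mM MgCl2, 1.0 mM DTT, then the reaction ran 30 min at 22° C. with 2 mM ATP and 0.06 μM biotinylated peptide (final).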
A general note: In TR-FRET formats the signal depends on donor and acceptor labels being close together.

Experiment [3] has as its system 221 kinases other than MKNK. Kind of experiment: Kinase selectivity profiling (Merck Millipore KinaseProfiler). The experiment is classed as biochemical. The conditions noted are these: compound at 1 μM. On the procedure:
Compounds of the present invention show a higher kinase inhibition selectivity than compounds disclosed in the patent applications WO 2010/023181 A1, WO 2011/104334 A1, WO 2011/104337 A1, WO 2011/104338 A1 and WO 2011/104340 A1 (Boehringer Ingelheim).
The compounds were tested at a concentration of 1 μM using 221 kinases different from MKNK. Kinase activity is expressed as a percentage of the mean kinase activity in the positive control samples. The positive control value is considered to be 100%, and all test samples are measured in relation to this value. For example, a result of 40% means that, in comparison to the positive control sample, 40% kinase activity remains in the presence of the test compound.
Table 6 lists the fraction number of 221 investigated kinases with regard to their remaining activity in the presence of 1 μM of investigated compounds.
The compound described in example 10 is compared to the compound N-[3-(dimethylamino)propyl]-4-[(4-fluoro-2-isopropoxyphenyl)amino]-5-methylthieno[2,3-d]pyrimidine-6-carboxamide which served as reference compound (ref) and has been described in WO 2010/23181, WO 2011/104340 and US 2011/212103.

T1 sequence (Q9BUB5 1-424 isoform Q9BUB5-2 T344D): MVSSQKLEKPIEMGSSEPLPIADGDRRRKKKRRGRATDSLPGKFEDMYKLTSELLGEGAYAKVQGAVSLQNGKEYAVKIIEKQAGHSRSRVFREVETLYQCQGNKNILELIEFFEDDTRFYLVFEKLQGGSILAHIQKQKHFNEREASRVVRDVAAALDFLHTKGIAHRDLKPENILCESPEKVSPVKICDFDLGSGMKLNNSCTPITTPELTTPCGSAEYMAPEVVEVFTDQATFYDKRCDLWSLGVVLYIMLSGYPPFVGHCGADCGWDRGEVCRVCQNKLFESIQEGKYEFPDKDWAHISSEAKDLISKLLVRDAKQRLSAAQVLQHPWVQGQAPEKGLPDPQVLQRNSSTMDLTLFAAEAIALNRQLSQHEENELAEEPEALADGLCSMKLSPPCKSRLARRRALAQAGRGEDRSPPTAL

With `CC(C)Oc1cc2[nH]ncc2cc1Nc1ncnc2sc3c(c12)CCC(C(=O)N(C)C)C3` (racemic) [Example 70, (RS)—N,N-Dimethyl-4-{[6-(propan-2-yloxy)-1H-indazol-5-yl]amino}-5,6,7,8-tetrahydro[1]benzothieno[2,3-d]pyrimidine-7-carboxamide], the IC50 in experiment [1] stood at 0.09 µM; in experiment [2] it was 0.0004 µM.
In the same order, the values of `Cc1cccc(NC(=O)C2CCc3c(sc4ncnc(Nc5ccc6[nH]ncc6c5)c34)C2)c1` (stereo not drawn) [Example 16, 4-(1H-indazol-5-ylamino)-N-(3-methylphenyl)-5,6,7,8-tetrahydro[1]benzothieno[2,3-d]pyrimidine-7-carboxamide] are 0.373 µM and 0.005 µM.
Turning to `COc1cc2[nH]ncc2cc1Nc1ncnc2sc3c(c12)CCC(C(=O)NC(C)C)C3` (racemic) [Example 66, (RS)-4-[(6-Methoxy-1H-indazol-5-yl)amino]-N-(propan-2-yl)-5,6,7,8-tetrahydro[1]benzothieno[2,3-d]pyrimidine-7-carboxamide], the IC50 in experiment [1] came out at 0.061 µM; in experiment [2], 0.0016 µM.
Take `CN(C)C(=O)C1CCc2c(sc3ncnc(Nc4ccc5[nH]ncc5c4)c23)C1` (stereo not drawn) [Example 10, 4-(1H-indazol-5-ylamino)-N,N-dimethyl-5,6,7,8-tetrahydro[1]benzothieno[2,3-d]pyrimidine-7-carboxamide]: the IC50 in experiment [2] is 0.012 µM. Further, in experiment [3], the “Fraction number of 221 kinases with remaining activity >30% and <80%” value is reported as 4/221; the “Fraction number of 221 kinases with remaining activity ≦30%” value is on record as 0/221; the “Fraction number of 221 kinases with remaining activity ≧80%” value was 217/221.
Take `O=C(NCc1cccc(C(F)(F)F)c1)C1CCc2c(sc3ncnc(Nc4ccc5[nH]ncc5c4)c23)C1` (stereo not drawn) [Example 9, 4-(1H-indazol-5-ylamino)-N-[3-(trifluoromethyl)benzyl]-5,6,7,8-tetrahydro[1]benzothieno[2,3-d]pyrimidine-7-carboxamide]: the IC50 in experiment [1] worked out at 0.171 µM; in experiment [2], 0.003 µM.
For the compound `O=C(NCc1ccccc1)C1CCc2c(sc3ncnc(Nc4ccc5[nH]ncc5c4)c23)C1` (stereo not drawn) [Example 21, N-Benzyl-4-(1H-indazol-5-ylamino)-5,6,7,8-tetrahydro[1] benzothieno [2,3-d]pyrimidine-7-carboxamide], the figures for the 50% inhibitory concentration (IC50) in experiment [1] and in experiment [2] were 0.381 µM and 0.003 µM, respectively.
Turning to `Cc1c(C(=O)NCCCN(C)C)sc2ncnc(Nc3ccc(F)cc3OC(C)C)c12` [Ref, N-[3-(dimethylamino)propyl]-4-[(4-fluoro-2-isopropoxyphenyl)amino]-5-methylthieno[2,3-d]pyrimidine-6-carboxamide, reference compound], in experiment [1], the IC50 amounted to 0.435 µM. Further, the IC50 in experiment [2] was 0.0098 µM. In experiment [3], the “Fraction number of 221 kinases with remaining activity >30% and <80%” value is 10/221; the “Fraction number of 221 kinases with remaining activity ≦30%” value is reported as 9/221; the “Fraction number of 221 kinases with remaining activity ≧80%” value is 202/221.
For the compound `CCNC(=O)C1CCc2c(sc3ncnc(Nc4cc5cn[nH]c5cc4OC)c23)C1` (stereo not drawn) [Example 58, N-Ethyl-4-[(6-methoxy-1H-indazol-5-yl)amino]-5,6,7,8-tetrahydro[1]benzothieno[2,3-d]pyrimidine-7-carboxamide], the IC50 in experiment [1] amounted to 0.203 µM; in experiment [2], 0.0007 µM.
In the same order, the values of `Cc1cccc(CNC(=O)C2CCc3c(sc4ncnc(Nc5ccc6[nH]ncc6c5)c34)C2)c1` (stereo not drawn) [Example 20, 4-(1H-indazol-5-ylamino)-N-(3-methylbenzyl)-5,6,7,8-tetrahydro[1] benzothieno [2,3-d]pyrimidine-7-carboxamide] are 0.344 µM and 0.002 µM.
In the same order, the values of `O=C(NCc1cccc(F)c1)C1CCc2c(sc3ncnc(Nc4ccc5[nH]ncc5c4)c23)C1` (stereo not drawn) [Example 18, N-(3-Fluorobenzyl)-4-(1H-indazol-5-ylamino)-5,6,7,8-tetrahydro[1]benzothieno-[2,3-d]pyrimidine-7-carboxamide] are 0.412 µM and 0.002 µM.
In the same order, the values of `COc1ccccc1NC(=O)C1CCc2c(sc3ncnc(Nc4ccc5[nH]ncc5c4)c23)C1` (stereo not drawn) [Example 12, 4-(1H-indazol-5-ylamino)-N-(2-methoxyphenyl)-5,6,7,8-tetrahydro[1]benzothieno[2,3-d]pyrimidine-7-carboxamide] are 0.252 µM and 0.008 µM.
For `CC(C)Oc1cc2[nH]ncc2cc1Nc1ncnc2sc3c(c12)CCC(C(=O)N1CCN(C)CC1)C3` (racemic) [Example 71, (RS)-(4-Methylpiperazin-1-yl)(4-{[6-(propan-2-yloxy)-1H-indazol-5-yl]amino}-5,6,7,8-tetrahydro[1]benzothieno[2,3-d]pyrimidin-7-yl)methanone], the figures for the IC50 in experiment [1] and in experiment [2] were 0.032 µM and 0.0005 µM, respectively.
On to `CC(C)NC(=O)C1CCc2c(sc3ncnc(Nc4cc5cn[nH]c5cc4OC(C)C)c23)C1` (racemic) [Example 72, (RS)—N-(Propan-2-yl)-4-{[6-(propan-2-yloxy)-1H-indazol-5-yl]amino}-5,6,7,8-tetrahydro[1]benzothieno[2,3-d]pyrimidine-7-carboxamide], for which the IC50 in experiment [1] turned out to be 0.075 µM; in experiment [2], 0.0006 µM.
For `Cc1ccccc1NC(=O)C1CCc2c(sc3ncnc(Nc4ccc5[nH]ncc5c4)c23)C1` (racemic) [Example 75, (RS)-4-(1H-Indazol-5-ylamino)-N-(2-methylphenyl)-5,6,7,8-tetrahydro[1]benzothieno[2,3-d]pyrimidine-7-carboxamide], the IC50 in experiment [1] was 0.219 µM; in experiment [2] it was 0.0027 µM.
In the same order, the values of `COc1cc2[nH]ncc2cc1Nc1ncnc2sc3c(c12)CCC(C(=O)N1CCN(C)CC1)C3` (racemic) [Example 65, (RS)-{4-[(6-Methoxy-1H-indazol-5-yl)amino]-5,6,7,8-tetrahydro[1]benzothieno[2,3-d]pyrimidin-7-yl}(4-methylpiperazin-1-yl)methanone] are 0.343 µM and 0.0005 µM.
On to `COc1cc2[nH]ncc2cc1Nc1ncnc2sc3c(c12)CCC(C(=O)N(C)C)C3` (racemic) [Example 64, (RS)-4-[(6-Methoxy-1H-indazol-5-yl)amino]-N,N-dimethyl-5,6,7,8-tetrahydro[1]benzothieno[2,3-d]pyrimidine-7-carboxamide], for which the IC50 worked out at 0.051 µM in experiment [1] and 0.0008 µM in experiment [2].
Take `CN(CCCO)C(=O)C1CCc2c(sc3ncnc(Nc4ccc5[nH]ncc5c4)c23)C1` (racemic) [Example 202, (RS)-N-(3-hydroxypropyl)-4-(1H-indazol-5-ylamino)-N-methyl-5,6,7,8-tetrahydro[1]benzothieno[2,3-d]pyrimidine-7-carboxamide]: in experiment [2], the IC50 was determined as 0.015 µM.
Still for that read-out and setting: in the case of `O=C(NCc1cccnc1)C1CCc2c(sc3ncnc(Nc4ccc5[nH]ncc5c4)c23)C1` (racemic) [Example 76, (RS)-4-(1H-Indazol-5-ylamino)-N-(pyridin-3-ylmethyl)-5,6,7,8-tetrahydro[1]benzothieno[2,3-d]pyrimidine-7-carboxamide] it was 0.0051 µM.

The values are drawn from patent publication US9540392B2, “Thienopyrimidines” (BAYER PHARMA AKTIENGESELLSCHAFT, priority 2012, dated 2017).
